Measurements as given in US8604044B2, “Quinazoline based EGFR inhibitors containing a zinc binding moiety” (Curis, Inc., priority 2006, dated 2013).

How the values were obtained:
HDAC = HDAC fluorimetric assay (HDAC enzymatic activity, HeLa nuclear extract); type: biochemical; details: for IC50: HeLa nuclear extract, read-out: HDAC IC50 grading
Method: HDAC inhibitors were screened using an HDAC fluorimetric assay kit (AK-500, Biomol, Plymouth Meeting, Pa.).
Each assay was setup as follows: Defrosted all kit components and kept on ice until use. […] Prepared dilutions of Trichostatin A (TSA, positive control) and tested compounds in assay buffer (5× of final concentration). Diluted Fluor de Lys™ Substrate in assay buffer to 100 uM (50 fold=2× final). Diluted Fluor de Lys™ developer concentrate 20-fold (e.g. 50 μl plus 950 μl Assay Buffer) in cold assay buffer. Second, diluted the 0.2 mM Trichostatin A 100-fold in the 1× Developer (e.g. 10 μl in 1 ml; final Trichostatin A concentration in the 1× Developer=2 μM; final concentration after addition to HDAC/Substrate reaction=1 μM). Added Assay buffer, diluted trichostatin A or test inhibitor to appropriate wells of the microtiter plate. Added diluted HeLa extract or other HDAC sample to all wells except for negative controls.

HER2 = target: T1, HER2 (Homo sapiens, UniProt P04626); assay: Radioisotope assay for HER2; type: biochemical; details: read-out: HER2/ErB2 IC50 grading
T1 construct: human HER2 amino acids 679-1255; host or cells: baculovirus in Sf9 insect cells
T1 sequence (P04626 679-1255): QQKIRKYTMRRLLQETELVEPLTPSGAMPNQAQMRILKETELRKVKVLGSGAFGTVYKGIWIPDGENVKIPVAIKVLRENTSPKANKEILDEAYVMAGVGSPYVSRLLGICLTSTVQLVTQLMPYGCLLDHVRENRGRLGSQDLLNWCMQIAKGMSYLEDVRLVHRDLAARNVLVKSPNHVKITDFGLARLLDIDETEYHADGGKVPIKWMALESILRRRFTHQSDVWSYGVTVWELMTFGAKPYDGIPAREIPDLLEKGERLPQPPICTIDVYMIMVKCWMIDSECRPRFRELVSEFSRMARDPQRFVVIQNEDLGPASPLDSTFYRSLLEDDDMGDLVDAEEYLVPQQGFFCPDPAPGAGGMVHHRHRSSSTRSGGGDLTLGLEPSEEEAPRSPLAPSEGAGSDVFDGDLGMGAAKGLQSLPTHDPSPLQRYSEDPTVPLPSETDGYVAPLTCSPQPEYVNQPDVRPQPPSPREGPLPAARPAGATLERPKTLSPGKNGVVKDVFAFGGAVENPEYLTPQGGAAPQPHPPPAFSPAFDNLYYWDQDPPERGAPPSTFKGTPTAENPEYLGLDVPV
Method: Protocol for Radioisotope Assay for HER2
10 nM HER2 and 0.1 mg/ml polyEY were placed in the reaction buffer and 2 mM MnCl2, 1 μM ATP and 1% DMSO final were added. The reaction mixture was incubated for 2 hours at room temperature.
MW=91.6 kDa. […] Enzyme is in 25 mM Tris-HCl, pH 8.0, 100 mM NaCl, 0.05% Tween-20, 50% glycerol, 10 mM reduced glutathione, and 3 mM DTT.

human EGFR = target: T2, human EGFR (Homo sapiens, UniProt P00533); assay: HTScan EGF Receptor Kinase Assay; type: biochemical; details: for IC50: read-out: EGFR IC50 grading
T2 construct: human EGFR (His672-Ala1210); purchased Cell Signaling Technologies; host or cells: baculovirus expression system
T2 sequence (P00533 672-1210): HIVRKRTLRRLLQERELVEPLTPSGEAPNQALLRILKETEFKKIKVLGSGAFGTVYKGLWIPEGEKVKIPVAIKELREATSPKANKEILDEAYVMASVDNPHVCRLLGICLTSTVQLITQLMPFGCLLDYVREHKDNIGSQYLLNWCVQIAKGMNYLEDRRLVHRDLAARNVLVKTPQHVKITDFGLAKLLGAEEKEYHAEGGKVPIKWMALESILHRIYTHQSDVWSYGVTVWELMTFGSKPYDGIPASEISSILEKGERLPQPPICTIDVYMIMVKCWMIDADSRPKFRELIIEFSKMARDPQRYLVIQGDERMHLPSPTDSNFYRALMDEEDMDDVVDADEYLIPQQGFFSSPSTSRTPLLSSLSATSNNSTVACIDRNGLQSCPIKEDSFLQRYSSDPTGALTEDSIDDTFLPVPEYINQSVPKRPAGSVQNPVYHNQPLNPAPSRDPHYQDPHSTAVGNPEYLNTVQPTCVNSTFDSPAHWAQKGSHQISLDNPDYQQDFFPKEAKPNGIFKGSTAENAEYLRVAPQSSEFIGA
Method: The ability of compounds to inhibit receptor kinase (EGFR) activity was assayed using HTScan™ EGF Receptor Kinase Assay Kits (Cell Signaling Technologies, Danvers, Mass.). […] The protein was purified by one-step affinity chromatography using glutathione-agarose.
Immediately transfer enzyme from −80° C. to ice. Allowed enzyme to thaw on ice. […] Returned immediately to ice. […] Incubated reaction plate at room temperature for 30 minutes. […] Added 100 μl/well primary antibody. Incubated at room temperature for 60 minutes. […] Added 100 μl/well diluted antibody. Incubated at room temperature for 30 minutes. […] Incubated at room temperature for 5 minutes.

Row | Structure (SMILES) | IC50 (HDAC) [nM] | IC50 (human EGFR) [nM] | melting point [°C] | IC50 (HER2) [nM] | activity in HDAC enzyme assay compared with SAHA (HDAC; FIG. 1) | activity in EFGR enzyme assay compared with erlotinib (human EGFR; FIG. 1)
1 | C#Cc1cccc(Nc2ncnc3cc(OC)c(OCCCCCC(=O)NO)cc23)c1 [Compound 11, 6-(4-(3-ethynylphenylamino)-7-methoxyquinazolin-6-yloxy)-N-hydroxyhexanamide] | < 100 |  |  | 100 to 1000 |  | 
2 | C#Cc1cccc(Nc2ncnc3ccc(OCCCCCC(=O)NO)cc23)c1 [Compound 23, 6-(4-(3-ethynylphenylamino)quinazolin-6-yloxy)-N-hydroxyhexanamide] | < 100 |  | 176 to 182 |  |  | 
3 | COc1cc2c(Nc3ccc(F)c(Cl)c3)ncnc2cc1OCCCCCCC(=O)NO [Compound 161, 7-(4-(3-chloro-4-fluorophenylamino)-6-methoxyquinazolin-7-yloxy)-N-hydroxyheptanamide] | < 100 |  |  | 100 to 1000 |  | 
4 | O=C(CCCOc1ccc2ncnc(Nc3ccc(F)c(Cl)c3)c2c1)NO [Compound 15, 4-(4-(3-chloro-4-fluorophenylamino)quinazolin-6-yloxy)-N-Hydroxybutanamide] | < 100 |  | 128 to 132 |  |  | 
5 | COc1cc2ncnc(N[C@H](C)c3ccccc3)c2cc1OCCCCCCC(=O)NO [Compound 79, (R)—N-hydroxy-7-(7-methoxy-4-(1-phenylethylamino)quinazolin-6-yloxy)heptanamide] | < 100 |  |  | 100 to 1000 |  | 
6 | COc1cc2ncnc(Nc3ccc(F)c(Cl)c3)c2cc1OCCCCCCN(O)C(N)=O [Compound 102] |  | < 100 |  |  |  | 
7 | COc1cc2ncnc(NCc3ccccc3)c2cc1OCCCCCCC(=O)NO [Compound 85, 7-(4-(Benzylamino)-7-methoxyquinazolin-6-yloxy)-N-hydroxyheptanamide] | < 100 |  |  | 100 to 1000 |  | 
8 | C#Cc1cccc(Nc2ncnc3ccc(OCC(=O)NO)cc23)c1 [Compound 19, 2-(4-(3-ethynylphenylamino)quinazolin-6-yloxy)-N-hydroxyacetamide] | > 10000 |  | 189 to 191 |  |  | 
9 | COc1cc2ncnc(Nc3ccc(F)c(Cl)c3)c2cc1NC(=O)CCCCCCC(=O)NO [Compound 40, N^1-(4-(3-chloro-4-fluorophenylamino)-7-methoxyquinazolin-6-yl)-N^8-hydroxyoctanediamide] | < 100 |  |  | 100 to 1000 |  | 
10 | O=C(CCCCCCOc1ccc2ncnc(Nc3ccc(F)c(Cl)c3)c2c1)NO [Compound 18, 7-(4-(3-chloro-4-fluorophenylamino)quinazolin-6-yloxy)-N-hydroxyheptanamide] | < 100 |  |  | 100 to 1000 |  | 
11 | COc1cc2ncnc(Nc3ccc(F)c(Cl)c3)c2cc1OCCCCCCC(=O)NO [Compound 6, 7-(4-(3-Chloro-4-fluorophenylamino)-7-methoxyquinazolin-6-yloxy)-N-hydroxyheptanamide] | < 100 |  |  | < 100 | more active | more active
12 | C#Cc1cccc(Nc2ncnc3cc(OC)c(OCC(=O)NO)cc23)c1 [Compound 7, 2-(4-(3-ethynylphenylamino)-7-methoxyquinazolin-6-yloxy)-N-hydroxyacetamide] | > 10000 |  |  | < 100 |  | 
13 | COCCOc1cc2ncnc(Nc3ccc(F)c(Cl)c3)c2cc1OCCCCCCC(=O)NO [Compound 30, 7-(4-(3-Chloro-4-fluorophenylamino)-7-(2-methoxyethoxy)quinazolin-6-yloxy)-N-hydroxyheptanamide] | < 100 |  |  | 100 to 1000 |  | 
14 | C#Cc1cccc(Nc2ncnc3cc(OCCCCCCC(=O)NO)c(OC)cc23)c1 [Compound 162, 7-(4-(3-ethynylphenylamino)-6-methoxyquinazolin-7-yloxy)-N-hydroxyheptanamide] | < 100 | < 100 |  | 100 to 1000 |  | 
15 | COc1cc2ncnc(Nc3ccc(F)c(Cl)c3)c2cc1SCCCCCCC(=O)NO [Compound 155, 7-(4-(3-Chloro-4-fluorophenylamino)-7-methoxyquinazolin-6-ylthio)-N-hydroxyheptanamide] |  | < 100 |  | < 100 |  | 
16 | C#Cc1cccc(Nc2ncnc3ccc(OCCCC(=O)NO)cc23)c1 [Compound 21, 4-(4-(3-ethynylphenylamino)quinazolin-6-yloxy)-N-hydroxybutanamide] | 1000 to 10000 |  | 182 to 186 |  |  | 
17 | C#Cc1cccc(Nc2ncnc3cc(OC)c(NC(=O)CCCCCCC(=O)NO)cc23)c1 [Compound 44, N^1-(4-(3-ethynylphenylamino)-7-methoxyquinazolin-6-yl)-N^8-hydroxyoctanediamide] | < 100 |  |  | 100 to 1000 |  | 
18 | O=C(CCCCOc1ccc2ncnc(Nc3ccc(F)c(Cl)c3)c2c1)NO [Compound 16, 5-(4-(3-chloro-4-fluorophenylamino)quinazolin-6-yloxy)-N-hydroxypentanamide] | 100 to 1000 |  | 85.9 |  |  | 
19 | COc1cc2ncnc(Nc3ccc(F)c(Cl)c3)c2cc1SCCCCC(=O)NO [Compound 151, 5-(4-(3-chloro-4-fluorophenylamino)-7-methoxyquinazolin-6-ylthio)-N-hydroxypentanamide] |  | < 100 |  | < 100 |  | 
20 | COc1cc2ncnc(Nc3ccc(OCc4cccc(F)c4)c(Cl)c3)c2cc1OCCCCCCC(=O)NO [Compound 199, 7-(4-(3-chloro-4-(3-fluorobenzyloxy)phenylamino)-7-methoxyquinazolin-6-yloxy)-N-hydroxyheptanamide] | < 100 | < 100 |  | < 100 |  | 

Now from value to compound, other results behind:

Row | IC50 (HDAC) [nM] | IC50 (human EGFR) [nM] | melting point [°C] | Structure (SMILES) | IC50 (HER2) [nM] | activity in HDAC enzyme assay compared with SAHA (HDAC; FIG. 1) | activity in EFGR enzyme assay compared with erlotinib (human EGFR; FIG. 1)
21 | < 100 |  |  | C#Cc1cc(Nc2ncnc3cc(OC)c(OCCCCCCC(=O)NO)cc23)ccc1F [Compound 75, 7-(4-(3-ethynyl-4-fluorophenylamino)-7-methoxyquinazolin-6-yloxy)-N-hydroxyheptanamide] | 100 to 1000 |  | 
22 |  | < 100 |  | C#Cc1cccc(Nc2ncnc3cc(O)c(OCCCCCCC(=O)NO)cc23)c1 [Compound 207] | < 100 |  | 
23 | < 100 | < 100 |  | C#Cc1cc(Nc2ncnc3cc(OC)c(OCCCCCCC(=O)NO)cc23)ccc1O [Compound 206] | < 100 |  | 
24 | 100 to 1000 | < 100 |  | O=C(CCCCCCCNCc1ccc(-c2ccc3ncnc(Nc4ccc(OCc5cccc(F)c5)c(Cl)c4)c3c2)o1)NO [Compound 201] | < 100 |  | 
25 | < 100 |  |  | C#Cc1cc(Nc2ncnc3cc(OCCOC)c(OCCCCCCC(=O)NO)cc23)ccc1F [Compound 76] | 100 to 1000 |  | 
26 | 100 to 1000 |  | 120 | O=C(CCCCCCNCc1ccc(-c2ccc3ncnc(Nc4ccc(OCc5cccc(F)c5)c(Cl)c4)c3c2)o1)NO [Compound 178, 7-((5-(4-(3-chloro-4-(3-fluorobenzyloxy)phenylamino)quinazolin-6-yl)furan-2-yl)methylamino)-N-hydroxyheptanamide] |  |  | 
27 | < 100 | < 100 |  | COCCOc1cc2ncnc(Nc3ccc(OCc4cccc(F)c4)c(Cl)c3)c2cc1OCCCCCCC(=O)NO [Compound 200] | < 100 |  | 
28 | < 100 | < 100 |  | COCCOc1cc2c(Nc3ccc(F)c(Cl)c3)ncnc2cc1OCCCCCCC(=O)NO [Compound 167, 7-(4-(3-chloro-4-fluorophenylamino)-6-(2-methoxyethoxy)quinazolin-7-yloxy)-N-hydroxyheptanamide] | 100 to 1000 |  | 
29 | < 100 | < 100 |  | O=C(CCCCCCOc1ccc2ncnc(Nc3ccc(OCc4cccc(F)c4)c(Cl)c3)c2c1)NO [Compound 198, 7-(4-(3-chloro-4-(3-fluorobenzyloxy)phenylamino)quinazolin-6-yloxy)-N-hydroxyheptanamide] | < 100 |  | 
30 | 100 to 1000 |  | 118.2 to 144.3 | COc1cc2ncnc(N[C@H](C)c3ccc(F)cc3)c2cc1OCCCCCCC(=O)NO [Compound 81, (R)-7-(4-(1-(4-fluorophenyl)ethylamino)-7-methoxyquinazolin-6-yloxy)-N-hydroxyheptanamide] |  |  | 
31 | < 100 | < 100 |  | C#Cc1cccc(Nc2ncnc3cc(OCCCCCCC(=O)NO)c(OCCOC)cc23)c1 [Compound 168, 7-(4-(3-ethynylphenylamino)-6-(2-methoxyethoxy)quinazolin-7-yloxy)-N-hydroxyheptanamide] | 100 to 1000 |  | 
32 | > 10000 |  | 170 | O=C(CCNCc1ccc(-c2ccc3ncnc(Nc4ccc(OCc5cccc(F)c5)c(Cl)c4)c3c2)o1)NO [Compound 174, 3-((5-(4-(3-Chloro-4-(3-fluorobenzyloxy)phenylamino)quinazolin-6-yl)furan-2-yl)methylamino)-N-hydroxypropanamide] |  |  | 
